The values that follow come from patent US8993574B2, “Pyrrole antifungal agents” (F2G Ltd, priority 2008, dated 2015).

Values after ≈ are worked out from the molar mass of the structure shown.

Common to all, as to type: cell-based
In assay [1] the test system is Aspergillus flavus. In words: MIC, YAG medium. To be noted: 24 h at 35° C, MIC banded into grades; for MIC: Aspergillus flavus, 24 h, read-out: MIC grade, A. flavus. The method in brief:
(§1)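 Endpoint is growth at OD 485 nm after 24 h at 35° C, with MIC defined as the lowest drug level giving >70% inhibition relative to untreated wells and recorded in mg/L. Tests ran in YAG broth with 1−2×10^4 cfu/mL spore inocula from Sabouraud-grown cultures. Drug ranges were 50-0.05 mg/L, repeated at 0.5-0.0005 mg/L when needed.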

The test system of assay [2] is Aspergillus fumigatus AF210. As to the kind of experiment: MIC, YAG medium. To be noted: 24 h at 35° C, MIC banded into grades; for MIC: Aspergillus fumigatus, read-out: MIC grade, A. fumigatus 210. The method in brief:
as §1

Assay [3] concerns Aspergillus fumigatus AF293. In words: MIC, YAG medium. To be noted: 24 h at 35° C, MIC banded into grades; for MIC: Aspergillus fumigatus, read-out: MIC grade, A. fumigatus. In a few lines: as §1
In assay [4] the test system is Aspergillus niger. In words: MIC, YAG medium. To be noted: 24 h at 35° C, MIC banded into grades; for MIC: Aspergillus niger, read-out: MIC grade, A. niger. The method in brief: as §1
Assay [5] deals with Aspergillus terreus AT49. As to the kind of experiment: MIC, YAG medium. To be noted: 24 h at 35° C, MIC banded into grades; for MIC: Aspergillus terreus, read-out: MIC grade, A. terreus 49. The method in brief:
as §1

In assay [6] the test system is Aspergillus terreus AT4. As to the kind of experiment: MIC, YAG medium. The following applies: 24 h at 35° C, MIC banded into grades; for MIC: Aspergillus terreus, read-out: MIC grade, A. terreus. The method in brief: as §1
Assay [7] deals with Aspergillus flavus. As to the kind of experiment: MIC, RPMI medium. The following applies: MIC banded into grades; for MIC: Aspergillus flavus, read-out: MIC grade, A. flavus. In a few lines: (§2)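 Minimum inhibitory concentrations were determined in glucose-supplemented (2%) RPMI buffered to pH 7.0 with 0.135 M MOPS. Wells held 1−2×10^4 cfu/mL and compound from 50 to 0.05 mg/L, incubated 24-48 h at 35° C, with >80% growth reduction by OD 485 nm as endpoint.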

Assay [8] concerns Aspergillus fumigatus AF210. In words: MIC, RPMI medium. To be noted: for MIC: Aspergillus fumigatus, AF210, MIC banded into grades, read-out: MIC grade, A. fumigatus 210; for MIC grade, A. fumigatus 210: MIC banded into grades. The method in brief: as §2
For assay [9], the system named is Aspergillus fumigatus AF293. As to the kind of experiment: MIC, RPMI medium. To be noted: for MIC: Aspergillus fumigatus, AF293, MIC banded into grades, read-out: MIC grade, A. fumigatus; for MIC grade, A. fumigatus: MIC banded into grades. The method in brief:
as §2

The test system of assay [10] is Aspergillus niger. As to the kind of experiment: MIC, RPMI medium. To be noted: MIC banded into grades; for MIC: Aspergillus niger, read-out: MIC grade, A. niger. The method in brief:
as §2

Assay [11] has as its system Aspergillus terreus AT49. In words: MIC, RPMI medium. The following applies: for MIC: Aspergillus terreus, AT49, MIC banded into grades, read-out: MIC grade, A. terreus 49; for MIC grade, A. terreus 49: MIC banded into grades. The method in brief:
as §2

Assay [12] deals with Aspergillus terreus AT4. In words: MIC, RPMI medium. The following applies: for MIC: Aspergillus terreus, AT4, MIC banded into grades, read-out: MIC grade, A. terreus; for MIC grade, A. terreus: MIC banded into grades. In a few lines:
as §2

The MIC is the smallest concentration in the dilution series that meets the test's criterion for growth inhibition.

`Cc1cc(-c2ccccc2)c(C(=O)C(=O)Nc2ccncc2)n1C` [Example 33, 2-(1,5-Dimethyl-3-phenyl-1H-pyrrol-2-yl)-2-oxo-N-pyridin-4-yl-acetamide]: the MIC in assay [1] was greater than 10 µg/mL; in assay [2] it was greater than 10 µg/mL; in assay [3], greater than 10 µg/mL; in assay [4], greater than 10 µg/mL; in [5], 1 to 10 µg/mL (≈ 3.13 to 31.3 µM); in [6], greater than 10 µg/mL. In addition, the MIC in [7], in assay [8], in assay [9], in assay [10], in assay [11] and in assay [12] was greater than 10 µg/mL in each case.

On to `CCCNC(=O)C(=O)c1c(-c2ccccc2)ccn1CCOC` [Example 82, 2-[1-(2-Methoxy-ethyl)-3-phenyl-1H-pyrrol-2-yl]-2-oxo-N-propyl-acetamide], for which the MIC was greater than 10 µg/mL in assay [1]; 1 to 10 µg/mL (≈ 3.18 to 31.8 µM) in [2]; 1 to 10 µg/mL (≈ 3.18 to 31.8 µM) in assay [3]; greater than 10 µg/mL in assay [4]; 1 to 10 µg/mL (≈ 3.18 to 31.8 µM) in [5]; 1 to 10 µg/mL (≈ 3.18 to 31.8 µM) in assay [6]. Also, the MIC in assay [7], in assay [8], in assay [9], in assay [10], in assay [11] and in assay [12] was greater than 10 µg/mL each time.

For the molecule `CCCc1cc(-c2ccccc2)c(C(=O)C(=O)Nc2ccc(N3CCN(c4cc(C)cc(C)n4)CC3)cc2)n1C` [Example 124, N-{4-[4-(4,6-Dimethyl-pyridin-2-yl)-piperizin-1-yl]-phenyl}-2-[1-methyl-3-phenyl-5-propyl-1H-pyrrol-2-yl)-2-oxo-acetamide], the “MIC grade, A. flavus” value in [1] was 3 (A grade of 3 represents an MIC of less than 1 mg/L); in [7], 2 (A grade of 2 represents an MIC of from 1 to 10 mg/L). Further, the entries for the “MIC grade, A. fumigatus 210” value in assay [2] and in assay [8] were 3 (A grade of 3 represents an MIC of less than 1 mg/L) and 2 (A grade of 2 represents an MIC of from 1 to 10 mg/L), respectively. Also, the “MIC grade, A. fumigatus” value in [3] was 3 (A grade of 3 represents an MIC of less than 1 mg/L); in assay [9], 2 (A grade of 2 represents an MIC of from 1 to 10 mg/L). The figures for the “MIC grade, A. niger” value in [4] and in assay [10] were 3 (A grade of 3 represents an MIC of less than 1 mg/L) and 1 (a grade of 1 represents an MIC of greater than 10 mg/L), respectively. In addition, the “MIC grade, A. terreus 49” value is reported as 3 (A grade of 3 represents an MIC of less than 1 mg/L) in [5] and 2 (A grade of 2 represents an MIC of from 1 to 10 mg/L) in assay [11]. The figures for the “MIC grade, A. terreus” value in assay [6] and in assay [12] were 3 (A grade of 3 represents an MIC of less than 1 mg/L) and 2 (A grade of 2 represents an MIC of from 1 to 10 mg/L), respectively.

In the case of `Cc1cc(-c2ccccc2)c(C(=O)C(=O)Nc2cccc3ccncc23)n1C` [Example 43, 2-(1,5-Dimethyl-3-phenyl-1H-pyrrol-2-yl)-N-isoquinolin-8-yl-2-oxo-acetamide], the MIC was less than 1 µg/mL in [1]; 1 to 10 µg/mL (≈ 2.71 to 27.1 µM) in [2]; 1 to 10 µg/mL (≈ 2.71 to 27.1 µM) in assay [3]; greater than 10 µg/mL in assay [4]; 1 to 10 µg/mL (≈ 2.71 to 27.1 µM) in assay [5]; 1 to 10 µg/mL (≈ 2.71 to 27.1 µM) in assay [6]. Further, the MIC in [7] is 1 to 10 µg/mL (≈ 2.71 to 27.1 µM); in assay [8], greater than 10 µg/mL; in assay [9] it was greater than 10 µg/mL; in assay [10] it was greater than 10 µg/mL; in [11] it was greater than 10 µg/mL; in [12], 1 to 10 µg/mL (≈ 2.71 to 27.1 µM).

As for `COCn1c(C)cc(-c2ccccc2)c1C(=O)C(=O)Nc1ccc(N2CCN(c3cc(C)cc(C)n3)CC2)cc1` [Example 62, N-{4-[4-(4,6-Dimethyl-pyridin-2-yl)-piperazin-1-yl]-phenyl}-2-(1-methoxymethyl-5-methyl-3-phenyl-1H-pyrrol-2-yl)-2-oxo-acetamide], the MIC in assay [1], in assay [2], in [3], in [4], in assay [5] and in assay [6] was less than 1 µg/mL throughout. In addition, the MIC in assay [7], in [8], in [9], in assay [10], in [11] and in assay [12] was less than 1 µg/mL each time.

As to `Cc1cc(C)nc(N2CCN(c3ccc(NC(=O)C(=O)c4c(-c5ccccc5)cc(C(C)C)n4C)cc3)CC2)c1` [Example 20, N-{4-[4-(4,6-Dimethyl-pyridin-2-yl)-piperazin-1-yl]-phenyl}-2-(5-isopropyl-1-methyl-3-phenyl-1H-pyrrol-2-yl)-2-oxo-acetamide], the MIC in assay [1] was greater than 10 µg/mL; in assay [2], less than 1 µg/mL; in [3], greater than 10 µg/mL; in [4] it was greater than 10 µg/mL; in assay [5] it was less than 1 µg/mL; in assay [6] it was less than 1 µg/mL. Moreover, the MIC in [7] was greater than 10 µg/mL; in assay [8], greater than 10 µg/mL; in [9], greater than 10 µg/mL; in assay [10], greater than 10 µg/mL; in assay [11], 1 to 10 µg/mL (≈ 1.87 to 18.7 µM); in assay [12] it was greater than 10 µg/mL.

For the molecule `Cc1cc(-c2ccccc2)c(C(=O)C(=O)Nc2cccc3c2CCO3)n1C` [Example 23, N-(2,3-Dihydro-benzofuran-4-yl)-2-(1,5-dimethyl-3-phenyl-1H-pyrrol-2-yl)-2-oxo-acetamide], the MIC is less than 1 µg/mL in [1]; 1 to 10 µg/mL (≈ 2.77 to 27.7 µM) in assay [2]; less than 1 µg/mL in assay [3]; less than 1 µg/mL in [4]; less than 1 µg/mL in assay [5]; less than 1 µg/mL in assay [6]. Further, the minimal inhibitory concentration (MIC) in [7] is less than 1 µg/mL; in assay [8] it was 1 to 10 µg/mL (≈ 2.77 to 27.7 µM); in [9], 1 to 10 µg/mL (≈ 2.77 to 27.7 µM); in assay [10], 1 to 10 µg/mL (≈ 2.77 to 27.7 µM); in assay [11] it was less than 1 µg/mL; in assay [12] it was less than 1 µg/mL.

Turning to `Cc1cc(C)nc(N2CCN(c3ccc(NC(=O)C(=O)c4c(-c5ccccc5)cc(C)n4CCOC(C)C)cc3)CC2)c1` [Example 97, N-{4-[4-(4,6-Dimethyl-pyridin-2-yl)-piperazin-1-yl]-phenyl}-2-[1-(2-isopropoxy-ethyl)-5-methyl-3-phenyl-1H-pyrrol-2-yl]-2-oxo-acetamide], the MIC in assay [1] was 1 to 10 µg/mL (≈ 1.72 to 17.2 µM); in assay [2], less than 1 µg/mL; in [3], 1 to 10 µg/mL (≈ 1.72 to 17.2 µM); in assay [4], 1 to 10 µg/mL (≈ 1.72 to 17.2 µM); in assay [5], 1 to 10 µg/mL (≈ 1.72 to 17.2 µM); in [6], 1 to 10 µg/mL (≈ 1.72 to 17.2 µM). The MIC in assay [7] was 1 to 10 µg/mL (≈ 1.72 to 17.2 µM); in assay [8] it was 1 to 10 µg/mL (≈ 1.72 to 17.2 µM); in [9] it was less than 1 µg/mL; in assay [10] it was 1 to 10 µg/mL (≈ 1.72 to 17.2 µM); in [11], 1 to 10 µg/mL (≈ 1.72 to 17.2 µM); in assay [12], 1 to 10 µg/mL (≈ 1.72 to 17.2 µM).

As to `COC(=O)Cn1cc(-c2ccccc2)cc1C(=O)C(=O)Nc1ccc(N2CCN(c3cc(C)cc(C)n3)CC2)cc1` [Example 122, (2-{4-[4-(4,6-Dimethyl-pyridin-2-yl)-piperazin-1-yl]-phenylaminooxalyl}-4-phenyl-pyrrol-1-yl)-acetic acid methyl ester], the “MIC grade, A. flavus” value in assay [1] and in [7] was 1 (a grade of 1 represents an MIC of greater than 10 mg/L) each time. The “MIC grade, A. fumigatus 210” value in [2] is recorded as 2 (A grade of 2 represents an MIC of from 1 to 10 mg/L); in [8], 1 (a grade of 1 represents an MIC of greater than 10 mg/L). The “MIC grade, A. fumigatus” value in [3] is 3 (A grade of 3 represents an MIC of less than 1 mg/L); in assay [9] it was 1 (a grade of 1 represents an MIC of greater than 10 mg/L). The “MIC grade, A. niger” value in [4] and in assay [10] was 2 (A grade of 2 represents an MIC of from 1 to 10 mg/L) in each case. Besides, the “MIC grade, A. terreus 49” value in [5] and in [11] was 1 (a grade of 1 represents an MIC of greater than 10 mg/L) in each case. Besides, the “MIC grade, A. terreus” value in assay [6] and in assay [12] was 1 (a grade of 1 represents an MIC of greater than 10 mg/L) in each case.
